According to the supplement of paper PMC9663587:

How the values were obtained:
HCC1428 = experiment: GRmax, 72 h; higher = less effect;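 note: breast cell lines in 384-well plates, nine doses across a 10^4 range, Dye Drop imaging of viable cells vs DMSO and time-zero plates, GR 0 means no net growth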
HCC1500 = experiment: GRmax, 72 h; higher = less effect;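 note: breast cell lines in 384-well plates, nine doses across a 10^4 range, Dye Drop imaging of viable cells vs DMSO and time-zero plates, GR 0 means no net growth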
MDAMB157 = experiment: GRmax, 72 h; higher = less effect;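 note: breast cell lines in 384-well plates, nine doses across a 10^4 range, Dye Drop imaging of viable cells vs DMSO and time-zero plates, GR 0 means no net growth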
CAL51 = experiment: area over the GR curve, 72 h; higher = more effect;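 note: Dye Drop or Deep Dye Drop imaging of viable cells in 384-well plates (Hoechst nuclei, LIVE/DEAD dye), nine half-log doses, GR normalized to DMSO controls and time-zero plates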
EVSAT = experiment: area over the GR curve, 72 h; higher = more effect;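 note: Dye Drop or Deep Dye Drop imaging of viable cells in 384-well plates (Hoechst nuclei, LIVE/DEAD dye), nine half-log doses, GR normalized to DMSO controls and time-zero plates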
HCC1187 = experiment: area over the GR curve, 72 h; higher = more effect;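 note: Dye Drop or Deep Dye Drop imaging of viable cells in 384-well plates (Hoechst nuclei, LIVE/DEAD dye), nine half-log doses, GR normalized to DMSO controls and time-zero plates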
HTERT_HME1 = experiment: area over the GR curve, 72 h; higher = more effect;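 note: Dye Drop or Deep Dye Drop imaging of viable cells in 384-well plates (Hoechst nuclei, LIVE/DEAD dye), nine half-log doses, GR normalized to DMSO controls and time-zero plates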
MDAMB175VII = experiment: area over the GR curve, 72 h; higher = more effect
MGH312 = experiment: area over the GR curve, 72 h; higher = more effect
SKBR3 = experiment: area over the GR curve, 72 h; higher = more effect
T47D = experiment: area over the GR curve, 72 h; higher = more effect

Structure (SMILES)	GRmax, 72 h (HCC1428) [GR]	GRmax, 72 h (HCC1500) [GR]	GRmax, 72 h (MDAMB157) [GR]	area over the GR curve (CAL51) [GR]	area over the GR curve (EVSAT) [GR]	area over the GR curve (HCC1187) [GR]	area over the GR curve (HTERT_HME1) [GR]	area over the GR curve (MDAMB175VII) [GR]	area over the GR curve (MGH312) [GR]	area over the GR curve (SKBR3) [GR]	area over the GR curve (T47D) [GR]	GRmax, 72 h (HCC1428; main component drawn) [GR]	GRmax, 72 h (HCC1500; main component drawn) [GR]	GRmax, 72 h (MDAMB157; main component drawn) [GR]	area over the GR curve (CAL51; main component drawn) [GR]	area over the GR curve (HTERT_HME1; main component drawn) [GR]	area over the GR curve (SKBR3; main component drawn) [GR]	area over the GR curve (T47D; main component drawn) [GR]
CS(=O)(=O)N1CCN(Cc2cc3nc(-c4cccc5[nH]ncc45)nc(N4CCOCC4)c3s2)CC1 [Pictilisib/GDC0941] (max 10 µM)	0.192	-0.132	0.187	0.19	0.387	0.374	0.134	0.417	0.771	0.512	0.477							
O=C1NC(=O)[C@@H](c2cn3c4c(cccc24)CCC3)[C@@H]1c1c[nH]c2ccccc12 [Tivantinib/ARQ197] (max 10 µM)	0.0341	-0.33	-0.482	0.359	0.443	0.891	0.648	0.531	0.396	0.479	0.365							
Cc1c(N)nc([C@H](CC(N)=O)NC[C@H](N)C(N)=O)nc1C(=O)N[C@H](C(=O)N[C@H](C)[C@@H](O)[C@H](C)C(=O)N[C@H](C(=O)NCCc1nc(-c2nc(C(=O)NCCC[S+](C)C)cs2)cs1)[C@@H](C)O)[C@@H](OC1OC(CO)C(O)C(O)C1OC1OC(CO)C(O)C(OC(N)=O)C1O)c1cnc[nH]1 (stereo partly drawn) [Bleomycin] (max 10 µM)												0.217	0.174	-0.281	0.485	0.48	0.259	0.462
CO[C@H]1C[C@@H]2CC[C@@H](C)[C@@](O)(O2)C(=O)C(=O)N2CCCC[C@H]2C(=O)O[C@H]([C@H](C)C[C@@H]2CC[C@@H](OCCO)[C@H](OC)C2)CC(=O)[C@H](C)/C=C(\C)[C@@H](O)[C@@H](OC)C(=O)[C@H](C)C[C@H](C)/C=C/C=C/C=C/1C [Everolimus] (max 10 µM)	0.346	-0.31	0.481	0.432	0.551	0.287	0.371	1.14	0.798	0.794	0.616							
CC[C@@H]1C(=O)N(C)c2cnc(Nc3ccc(C(=O)N[C@H]4CC[C@H](N5CCN(CC6CC6)CC5)CC4)cc3OC)nc2N1C(C)C [Volasertib/BI6727] (max 1 µM)	-0.0388	0.286	-0.664	0.679	0.666	0.883	0.415	0.449	0.801	0.694	0.385							
CCc1cncnc1N1CCN(Cc2nc3ccc(C(F)(F)F)cc3[nH]2)CC1 (max 10 µM)	0.864	0.0495	0.11	0.0491	0.0249	0.014	0.117	0.314	-0.0701	0.0204	0.122							
COc1cc2c(Oc3ccc4[nH]c(C)cc4c3F)ncnc2cc1OCCCN1CCCC1 [Cediranib/AZD2171] (max 10 µM)	-0.55	-0.808	-0.585	0.171	0.064	0.195	-0.0207	0.193	-0.0345	0.063	0.122							
CCc1cnn2c(NCc3ccc[n+]([O-])c3)cc(N3CCCC[C@H]3CCO)nc12 (max 1 µM)	-0.672	-0.572	-0.911	0.599	0.0948	0.942	0.552	0.607	0.867	0.835	0.47							
CC(C)n1nc(-c2ccc3oc(N)nc3c2)c2c(N)ncnc21 [INK128/MLN0128] (max 3.162 µM)	-0.0001	-0.469	-0.0331	0.553	0.691	0.416	0.401	1.17	1.22	0.971	0.689							
N.N.[Cl][Pt][Cl] [Cisplatin] (max 10 µM)	0.122	0.207	0.189	0.214			0.297			0.0978	0.214							
Nc1cc(C(F)(F)F)c(-c2cc(N3CCOCC3)nc(N3CCOCC3)n2)cn1 [Buparlisib/NVP-BKM120] (max 10 µM)	-0.265	-0.546	-0.641	0.328	0.322	0.425	0.243	0.705	0.506	0.585	0.482							
COc1cc2nccc(Oc3ccc(NC(=O)C4(C(=O)Nc5ccc(F)cc5)CC4)cc3)c2cc1OC [Cabozantinib] (max 10 µM)	0.631	0.184	0.149	0.0598	0.0366	0.39	0.0866	-0.124	-0.0125	-0.0595	0.0578							
Cc1cc(C(C)Nc2ccccc2)c2nc(N3CCOCC3)cc(=O)n2c1 (stereo not drawn) [TGX221] (max 10 µM)	0.769	0.503	0.824	-0.0117	0.254	0.305	-0.0608	-0.0733	0.472	-0.0125	-0.0193							
CC(=O)Nc1cccc(-n2c(=O)n(C3CC3)c(=O)c3c(Nc4ccc(I)cc4F)n(C)c(=O)c(C)c32)c1 (max 1 µM)	0.815	0.344	0.406	0.0662	0.0263	0.198	0.434	0.938	-0.169	0.182	0.213							
CCNC(=O)c1noc(-c2cc(C(C)C)c(O)cc2O)c1-c1ccc(CN2CCOCC2)cc1 [Luminespib/NVP-AUY922] (max 1 µM)	-0.0043	-0.224	-0.049	0.704	0.68	0.919	0.633	0.774	0.962	0.714	0.51							
CC[C@@]1(O)C(=O)OCc2c1cc1n(c2=O)Cc2cc3c(CN(C)C)c(O)ccc3nc2-1 [Topotecan] (max 10 µM)	-0.376	-0.801	-0.833	0.856			0.873			0.794	0.959							
CC(=O)O[C@H]1C(=O)[C@@]2(C)[C@H]([C@H](OC(=O)c3ccccc3)[C@]3(O)C[C@H](OC(=O)[C@H](O)[C@@H](NC(=O)c4ccccc4)c4ccccc4)C(C)=C1C3(C)C)[C@]1(OC(C)=O)CO[C@@H]1C[C@@H]2O [Paclitaxel] (max 1 µM)	0.0645	-0.0589	-0.67	0.669	0.844	1.34	0.676	0.837	0.973	0.89	0.661							
CCN1CCN(Cc2ccc(Nc3ncc(F)c(-c4cc(F)c5nc(C)n(C(C)C)c5c4)n3)nc2)CC1 (max 10 µM)	0.0492	0.22	-0.604	0.578	0.324	0.33	0.428	0.901	0.124	0.536	0.766							
Cc1nc(Nc2ncc(C(=O)Nc3c(C)cccc3Cl)s2)cc(N2CCN(CCO)CC2)n1 [Dasatinib] (max 10 µM)	0.578	-0.159	0.0683	0.516	0.379	0.618	0.415	0.972	0.908	-0.0183	0.193							
COc1cccc2c1C(=O)c1c(O)c3c(c(O)c1C2=O)C[C@@](O)(C(=O)CO)C[C@@H]3O[C@H]1C[C@H](N)[C@H](O)[C@H](C)O1 [Doxorubicin] (max 3.162 µM)	-0.74	-0.713	-0.777	0.795	0.642	1.08	0.836	0.908	1.07	0.942	0.919							
CC(=O)c1c(C)c2cnc(Nc3ccc(N4CCNCC4)cn3)nc2n(C2CCCC2)c1=O (max 3.162 µM)	0.254	0.574	0.975	0.25	0.141	0.268	0.259	0.763	-0.129	0.285	0.45							
Cc1nn(C)c(COc2ccc(N3CCN(S(=O)(=O)N(C)C)CC3)cc2)c1-c1cccc2c(CCCOc3cccc4ccccc34)c(C(=O)O)n(CCN3CCOCC3)c12 (max 10 µM)	0.816	0.872	0.788	0.0073	0.0097	-0.0287	0.339	0.0271	-0.123	0.0389	0.0143							
CN1CCN(CCOc2cc(OC3CCOCC3)c3c(Nc4c(Cl)ccc5c4OCO5)ncnc3c2)CC1 [Saracatinib/AZD0530] (max 10 µM)	0.669	-0.197	0.355	0.227	0.203	0.457	-0.0453	0.762	0.537	-0.0324	0.171							
Cc1cc(Nc2ncc(Cl)c(Nc3ccccc3S(=O)(=O)C(C)C)n2)c(OC(C)C)cc1C1CCNCC1 [Ceritinib/LDK378] (max 10 µM)	-0.867	-0.954	-0.926	0.417	0.0642	0.168	0.286	-0.0348	0.001	0.301	0.312							
CN(C)CC[C@H](CSc1ccccc1)Nc1ccc(S(=O)(=O)NC(=O)c2ccc(N3CCN(Cc4ccccc4-c4ccc(Cl)cc4)CC3)cc2)cc1[N+](=O)[O-] [ABT-737] (max 10 µM)	0.243	-0.736	0.201	0.0125	0.0258	0.526	0.081	0.0499	0.224	-0.0209	-0.0166							
